Results on 1 molecule are retold here after publication PMC11990524, “Design and Synthesis of Novel 6-(Substituted phenyl)-[1,3]dioxolo[4′,5′:4,5]benzo[1,2-d]thiazole Compounds as Tyrosinase Inhibitors: In Vitro and In Vivo Insights” (Molecules, 2025).

One assay concerns the target mushroom tyrosinase (Agaricus bisporus, UniProt C7FF04). Nature of the assay: Kinetic analysis of mushroom tyrosinase (Lineweaver–Burk and Dixon plots). In kind it is biochemical. The arrangement: purchased Sigma-Aldrich. The conditions noted are these: substrate L-dopa. The method, then:
Therefore, the mechanism of inhibition was investigated using mushroom tyrosinase. At various concentrations of L-dopa, the initial dopachrome production rate was investigated at four different concentrations of 5 (0, 20, 40, and 80 μM) and 9 (0, 0.5, 1.0, and 2.0 μM).
The Lineweaver–Burk plot for each compound was re-plotted by plotting the reciprocal of the initial dopachrome production rate vs. the […] to create a Dixon plot for each compound (Figure 3C,D for compounds 5 and 9, respectively). […] The absolute value of the x-coordinate of the merged point represents the inhibition constant (Ki), which indicates the potency of the inhibitor.
Kinetic analysis of mushroom tyrosinase was performed by recording the initial dopachrome formation rate in the presence of compounds 5 and 9. […] The optical density of dopachrome production in each well was recorded at 475 nm at 5 min intervals for 30 min. Compounds were tested at 80, 40, 20, and 0 μM for 5 and at 2, 1.0, 0.5, and 0 μM for 9, respectively. Potting the inverse of the substrate concentration vs. the reciprocal of the initial dopachrome production rate generated Lineweaver–Burk plots.

Assay [1] in a line: DPPH radical scavenging assay. The conditions noted are these: 500 μM; 30 min in the dark. The method, then:
DPPH radical scavenging activity was determined by mixing the DPPH solution with compounds 1–13, leaving it in the dark at 20 °C for 30 min, and measuring the optical density at 517 nm. Ascorbic acid (AA) was used as a positive control to compare the scavenging activity. All test samples were used at 500 μM.
An aliquot (20 μL) of test sample (compounds 1–13 and ascorbic acid [positive control]; 5 mM) in DMSO and 180 μL DPPH solution (0.2 mM) in methanol were mixed in each well of a 96-well plate. The mixed solution was kept in the dark at 18 °C for 30 min. A VE microplate reader was used to measure the optical density of each well at 517 nm.
On the technique in general: DPPH is a stable violet radical that fades when it is reduced.

Another assay has as its system B16F10 cells. Nature of the assay: Cellular melanin content assay using B16F10 cells. In kind it is cell-based, murine. How it is done:
After 72 h of incubation, the melanin content was evaluated by measuring the optical density at 405 nm.
The plate was incubated in a CO2 incubator for 1 h. Each well was treated with stimulators (α-MSH and IBMX; 1 μM and 200 μM, respectively) and incubated in a CO2 incubator for 72 h. The incubated cells were rinsed twice with PBS (pH 7.4). 1N–NaOH solution (100 μL) was added to each well and warmed at 60 °C for 1 h. The lysates were transferred to each well of a 96-well plate. The optical density was measured at 405 nm.

By Ki is commonly meant a dissociation constant, usually derived from enzyme kinetics or from competition with a known ligand.

Chain of mushroom tyrosinase (C7FF04 1-392): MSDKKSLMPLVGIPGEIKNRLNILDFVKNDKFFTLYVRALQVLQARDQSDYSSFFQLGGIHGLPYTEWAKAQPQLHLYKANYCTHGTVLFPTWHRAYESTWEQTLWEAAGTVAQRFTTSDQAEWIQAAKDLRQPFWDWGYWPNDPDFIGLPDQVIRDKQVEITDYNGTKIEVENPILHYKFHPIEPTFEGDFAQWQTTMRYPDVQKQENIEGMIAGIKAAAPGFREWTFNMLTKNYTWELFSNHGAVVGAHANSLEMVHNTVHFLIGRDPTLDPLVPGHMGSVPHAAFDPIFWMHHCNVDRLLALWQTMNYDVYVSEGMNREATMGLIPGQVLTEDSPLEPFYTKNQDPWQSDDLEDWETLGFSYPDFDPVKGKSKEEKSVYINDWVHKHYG

For the molecule `Oc1ccc(-c2nc3cc4c(cc3s2)OCO4)c(O)c1` [Compound 9, 4-([1,3]Dioxolo[4′,5′:4,5]benzo[1,2-d]thiazol-6-yl)benzene-1,3-diol], the Ki on mushroom tyrosinase (Dixon plot, read-out: inhibition constant (Ki)) turned out to be 0.38 µM. Also, the mechanism of inhibition result on mushroom tyrosinase (Lineweaver–Burk plot) was “competitive inhibitors”. The “DPPH radical scavenging (inhibition)” value in assay [1] came out at 85%. For the same molecule, in the assay with B16F10 cells (1, 2, and 5 μM, IBMX 200 μM plus α-MSH 1 μM, 72 h), the melanin content entry is on record as “significantly reduced the stimulator-induced melanin contents”. Moreover, in the assay with B16F10 cells (same concentration (5 μM)), the “melanin production inhibition compared with kojic acid” value was “inhibited melanin production more potently than kojic acid”.
